Assay results taken from US20190134039A1, “ANTIVIRAL JAK INHIBITORS USEFUL IN TREATING OR PREVENTING RETROVIRAL AND OTHER VIRAL INFECTIONS” (EMORY UNIVERSITY, priority 2011, published 2019).

Columns and labels:
[1] = test system: wild-type HIV-1xxLAI; assay: Antiviral potency in primary human lymphocytes, wild type; format: cell-based; details: Human immunodeficiency virus 1, Lymphocyte, xxLAI, primary human lymphocytes
[2] = test system: PHA + IL-2 PBM cells; assay: cells; details: Homo sapiens, PBMC, read-out: IC50 in PHA + IL-2 PBM cells *MTT Assay
[3] = test system: latent HIV-1; assay: Reactivation of latent HIV-1, primary central memory-based T cell latency model; details: concentrations found during steady-state or Cmax in vivo
[4] = test system: pSTAT3; assay: cells
[5] = test system: HIV-1 containing 4xAZT (D67N/K70R/T215Y/K219Q); assay: microbe, parasite or virus in culture; format: cell-based
[6] = test system: latent HIV-1; assay: Reactivation of latent HIV-1, J-Lat latency T cell system; format: cell-based; details: concentrations found during steady-state or Cmax in vivo
[7] = test system: HIV-1BaL; assay: microbe, parasite or virus in culture; details: Human immunodeficiency virus 1, Macrophage, in Homo sapiens
Procedure: Macrophages were isolated as follows: Monocytes were isolated from buffy coats of HIV-1 negative, HBV/HCV-negative donors with density gradient centrifugation coupled with enrichment for CD14+ monocytes with Rosette Sep antibody cocktail (Stem Cell Technologies, Vancouver, British Columbia). Cells were seeded at a concentration of 1.0×10^6 cells/well for 1 hr at 37° C. and 5% CO2 to confer plastic adherence prior to repeated washes with 1×PBS. Macrophages were maintained in medium containing 100 U/ml macrophage colony-stimulating factor (m-CSF, R&D Systems, Minneapolis, Minn.), supplemented with 20% fetal calf serum (Atlanta Biologicals, Lawrenceville, Ga.) and 1% penicillin/streptomyocin (Invitrogen, Carlsbad, Calif.) for 7 days (37° C., 5% CO2) prior to testing.
Macrophage infections: Macrophages were cultured as described above for 7 days. […] 4 hrs after infection, virus was removed and drug-containing medium was returned to the cultures. Supernatants were collected on day 7 post-infection and HIV-1 p24 was quantified via ELISA (Zeptometrix Corporation, Buffalo, N.Y.). EC50 analysis was performed using CalcuSyn software (BioSoft Corporation, Cambridge, UK).

[8] = test system: latent HIV-1; assay: Reactivation of latent HIV-1 in primary human macrophages (PMA, p24 ELISA); format: cell-based; details: drug applied during reactivation, removed thereafter, within 72 hr post reactivation
[9] = test system: PBM cells; assay: cells; details: Homo sapiens, PBMC, read-out: IC50 in PBM cells *Propidium Iodide assay
[10] = test system: PHA stimulated PBM cells; assay: cells; details: Homo sapiens, PBMC, read-out: IC50 in PHA stimulated PBM cells *MTT Assay
[11] = test system: HIV-1 containing K65R; assay: microbe, parasite or virus in culture; format: cell-based
[12] = test system: Vero cells; assay: cells; details: Chlorocebus sabaeus, read-out: IC50 in Vero cells *MTT Assay
[13] = test system: HIV-2; assay: microbe, parasite or virus in culture; details: Human immunodeficiency virus 2, PBMC
[14] = test system: HIV-1 containing A62V/V75I/F77L/F116Y/Q151M; assay: microbe, parasite or virus in culture; format: cell-based
[15] = test system: HIV-1LAI; assay: microbe, parasite or virus in culture; details: Human immunodeficiency virus 1, PBMC, in Homo sapiens
Source text: PBM cells were isolated as follows: Lymphocytes were isolated from buffy coats derived from healthy donors obtained from Life South Laboratories (Dunwoody, Ga.). Activated lymphocytes were maintained for 72 hrs in medium that was supplemented with […] phytohemagglutinin (PHA) (Cape Cod associates, East Falmouth, Mass.). Media was comprised of RPMI media supplemented with 20% fetal calf serum, 1% penicillin/streptomyocin and 2% L-glutamine (Sigma Aldrich, San Jose, Calif.).
PBM cell infections: Testing was performed in duplicate with at least 3 independent assays. Cells were incubated in RPMI medium (HyClone, Logan, Utah) containing HR-IL2 (26.5 units/ml) and 20% fetal calf serum. Infections were performed by adding HIV-1LA1 followed by a further incubation at 37° C., 5% CO2, 1 hr prior to addition of drugs. Assays were performed in 24 well plates (BD Biosciences, Franklin Lakes, N.J.). One ml of supernatant was collected after 5 days in culture and then centrifuged at 12,000 rpm for 2 hr at 4° C. in a Jouan Br43i (Thermo Electron Corp., Marietta, Ohio). The product of the RT assay was quantified using a Packard harvester and direct beta counter and the data were analyzed as previously described (Schinazi et al, 1990).

[16] = test system: PHA+IL-2 stimulated primary human lymphocytes; assay: Proliferation and viability of PHA+IL-2 stimulated primary human lymphocytes; format: cell-based; details: PHA+IL-2 stimulated lymphocytes, 5 days
Procedure: The effect of various Jak inhibitors on proliferation and viability of PHA or PHA+IL-2 stimulated primary human lymphocytes was evaluated using the techniques described above.
For all experiments, cells were incubated with media alone or drug-containing medium for 5 days prior to assessment of cell count and viability. Data are mean and standard deviations for at least three independent experiments conducted with at least 4 pooled donors, and duplicates within each experiment.

[17] = test system: pSTAT5; assay: cells
[18] = test system: HIV-1 containing L74V; assay: microbe, parasite or virus in culture; format: cell-based
[19] = Human immunodeficiency virus 1, Lymphocyte

N#CC[C@H](C1CCCC1)n1cc(-c2ncnc3[nH]ccc23)cn1 [Jakafi, Ruxolitinib]
EC50 ([1]; read-out: EC50): 300 ± 300 nM | EC90 ([1]; read-out: EC90): 6100 ± 7600 nM | CC50 [2]: 3100 ± 1700 nM | inhibition of reactivation of latent HIV-1 [3]: ≥ 50% | EC50 ([4]; read-out: EC50 pSTAT3): < 10 nM | EC90 ([4]; read-out: EC90 pSTAT3): 10 nM | FI50 (ratio of EC50 against mutant virus:EC50 against wild-type xxLAI) ([5]; 4xAZT (D67N/K70R/T215Y/K219Q)): 0.3 | FI90 (ratio of EC90 against mutant virus:EC90 against wild-type xxLAI) ([5]; 4xAZT (D67N/K70R/T215Y/K219Q)): 0.4 | EC50 [5, 19]: 90 ± 100 nM | EC90 [5, 19]: 2400 ± 2000 nM | inhibition of reactivation of latent HIV-1 [6]: ≥ 50% | EC50 ([7]; read-out: Anti-HIV-1 EC50 in acutely infected MΦ): 300 ± 100 nM | EC90 ([7]; read-out: Anti-HIV-1 EC90 in acutely infected MΦ): 3100 ± 1800 nM | percent inhibition of reactivation of latent HIV-1 versus no drug control [8]: ~35% | IC50 [9]: > 50000 nM | IC50 [10]: 9100 ± 1300 nM | EC50 [11, 19]: 200 ± 300 nM | EC90 [11, 19]: 8500 ± 8100 nM | FI50 (ratio of EC50 against mutant virus:EC50 against wild-type xxLAI) ([11]; K65R): 0.8 | FI90 (ratio of EC90 against mutant virus:EC90 against wild-type xxLAI) ([11]; K65R): 1.4 | IC50 [12]: 29300 ± 3700 nM | EC50 ([13]; read-out: Anti-HIV-2 EC50 in acutely infected PBM cells): 20 ± 10 nM | EC90 ([13]; read-out: Anti-HIV-2 EC90 in acutely infected PBM cells): 400 ± 200 nM | FI50 (ratio of EC50 against mutant virus:EC50 against wild-type xxLAI) ([14]; A62V/V75I/F77L/F116Y/Q151M): 0.1 | FI90 (ratio of EC90 against mutant virus:EC90 against wild-type xxLAI) ([14]; A62V/V75I/F77L/F116Y/Q151M): 0.3 | EC50 [14, 19]: 30 ± 20 nM | EC90 [14, 19]: 1500 ± 1500 nM | EC50 ([15]; read-out: Anti-HIV-1 EC50 in acutely infected PBM cells): 100 ± 20 nM | EC90 ([15]; read-out: Anti-HIV-1 EC90 in acutely infected PBM cells): 4700 ± 70 nM | proliferation versus cells exposed to media alone ([16]; 1.0 μM): significantly inhibited | viability versus cells exposed to media alone ([16]; all concentrations): not significantly different | EC50 ([17]; read-out: EC50 pSTAT5): < 10 nM | EC90 ([17]; read-out: EC90 pSTAT5): < 10 nM | EC50 [18, 19]: 100 ± 200 nM | EC90 [18, 19]: 3200 ± 2600 nM | FI50 (ratio of EC50 against mutant virus:EC50 against wild-type xxLAI) ([18]; L74V): 0.5 | FI90 (ratio of EC90 against mutant virus:EC90 against wild-type xxLAI) ([18]; L74V): 0.5
